In patent publication US20260344673A1, “A SOLID FORM FOR PREPARATION OF AN AQUEOUS DISPERSION, AQUEOUS DISPERSION, STABLE CONCENTRATE, COMBINED AQUEOUS DISPERSION, AND USES THEREOF” (priority 2022, published 2026):

Legend:
Phytophthora cactorum = assay: Kirby-Bauer disk diffusion test, Phytophthora cactorum; parameters: % mycelium growth relative to the control: concentration or dose not given beside the values; conditions: for % mycelium growth relative to the control / mycelium growth: V8 medium; for mycelium growth: control 5.4 cm; for EFFICACY W (Abbot): control W=0, no growth W=100
Protocol: (§1) The performance of the embodiments of the present inventions and their mixtures enriched with millbase (MFA) was analysed against the appropriate reference substance, i.e., a commercial product containing the analogue active substance with the same concentration. The prepared solutions were applied on the paper antibiograms. Then the soaked antibiograms were placed on the Petri Dishes (dish diameter 90 mm) with the growth medium for fungal pathogens V8. Composition of V8: agar, calcium carbonate and multi-vegetable juice. 3 fragments of mycelium of the tested pathogen (5×5 mm) were transplanted onto the prepared medium. As a result, the zones where the fungal growth was inhibited have been measured and compared respectively with the control sample and the analogue active substance sample.
(§2) Assessment was carried out by determining the infested area of the Petri dish in %. These percentages have been converted into efficacy (W) according to Abbot's formula as follows: W=(1−α/β)×100 • where: • α—corresponds to the mycelium/bacterial growth of each tested sample [%], • β—corresponds to the mycelium/bacterial growth in control sample [%].
(§3) In order to estimate if the combined action effect with the commercial fungicide, the W parameter of the mixture was compared with W parameter for particular commercial fungicide solo. Where W=0 the efficacy of the control sample (whole Petri dish covered with mycelium), and W=100 is when no mycelium growth observed.

Fusarium oxysporum = assay: Kirby-Bauer disk diffusion test, Fusarium oxysporum
Protocol: (§4) The microbiological tests were carried out by applying Kirby-Bauer Disk Diffusion Susceptibility Test Protocol for antimicrobial activity. It is based on the formation of a concentration gradient in the growth medium during the diffusion of the active substance from the antibiogram disc (Kirby-Bauer method).
as §1, §2, §3

Phytophthora megasperma = assay: Kirby-Bauer disk diffusion test, Phytophthora megasperma
Protocol: as §4, §1, §2, §3

Monilinia fructigena = assay: Kirby-Bauer disk diffusion test, Monilinia fructigena; conditions: for % mycelium growth relative to the control / mycelium growth: V8 medium; for mycelium growth: control 5.4 cm; for EFFICACY W (Abbot): control W=0, no growth W=100
Protocol: as §1, §2, §3

Septoria nodorum (1291) = assay: Kirby-Bauer disk diffusion test, Septoria nodorum (1291)
Protocol: as §1, §2, §3

[1] = system: Alternaria infectoria/alternata; assay: Kirby-Bauer disk diffusion test, Alternaria infectoria/alternata; conditions: for % mycelium growth relative to the control / mycelium growth: V8 medium; for mycelium growth: control 8.6 cm; for EFFICACY W (Abbot): control W=0, no growth W=100
Protocol: as §1, §2, §3

Verticillium longisporum = assay: Kirby-Bauer disk diffusion test, Verticillium longisporum
Protocol: as §1, §2, §3

Rhizoctonia solani = assay: Kirby-Bauer disk diffusion test, Rhizoctonia solani; conditions: for % mycelium growth relative to the control / mycelium growth: V8 medium; for mycelium growth: control 8.6 cm; for EFFICACY W (Abbot): control W=0, no growth W=100
Protocol: as §1, §2, §3

Septoria tritici = assay: Kirby-Bauer disk diffusion test, Septoria tritici
Protocol: as §1, §2, §3

Venturia inaegualis = assay: Kirby-Bauer disk diffusion test, Venturia inaequalis; conditions: Venturia inaegualis
Protocol: as §4, §1, §2, §3

Sclerotinia sclerotiorum = assay: Kirby-Bauer disk diffusion test, Sclerotinia sclerotiorum; conditions: for % mycelium growth relative to the control / mycelium growth: V8 medium; for mycelium growth: control 8.6 cm; for EFFICACY W (Abbot): control W=0, no growth W=100
Protocol: as §1, §2, §3

Fusarium equiseti = assay: Kirby-Bauer disk diffusion test, Fusarium equiseti; conditions: for % mycelium growth relative to the control / mycelium growth: V8 medium; for mycelium growth: control 8.6 cm; for EFFICACY W (Abbot): control W=0, no growth W=100
Protocol: as §1, §2, §3

Trichoderma harzianum = assay: Kirby-Bauer disk diffusion test, Trichoderma harzianum
Protocol: as §1, §2, §3

[2] = system: Colletotrichum gloeosporioides; assay: Kirby-Bauer disk diffusion test, Colletotrichum gloeosporioides
Protocol: as §4, §1, §2, §3

Botrytis cinerea = assay: Kirby-Bauer disk diffusion test, Botrytis cinerea
Protocol: as §1, §2, §3

For `O=C(NCCc1ncc(C(F)(F)F)cc1Cl)c1ccccc1C(F)(F)F` [Fluopyram (500)], the “% mycelium growth relative to the control” value (Phytophthora cactorum) was 72%, the mycelium growth (Phytophthora cactorum) was 3.9 cm and the “EFFICACY W (Abbot)” value (Phytophthora cactorum) was 28. The “% mycelium growth relative to the control” value (Fusarium oxysporum; Fusarium oxysporum, V8 medium) was 100%, the mycelium growth (Fusarium oxysporum; Fusarium oxysporum, V8 medium, control 8.6 cm) was 8.6 cm and the “EFFICACY W (Abbot)” value (Fusarium oxysporum; Fusarium oxysporum, control W=0, no growth W=100) was 0. For the same compound, the “% mycelium growth relative to the control” value (Phytophthora megasperma; Phytophthora megasperma, V8 medium) was 65%, the mycelium growth (Phytophthora megasperma; Phytophthora megasperma, V8 medium, control 5.4 cm (8.6 cm in Table 25)) was 3.5 cm and the “EFFICACY W (Abbot)” value (Phytophthora megasperma; Phytophthora megasperma, control W=0, no growth W=100) was 35. The “% mycelium growth relative to the control” value (Fusarium graminearum; V8 medium) was 66%, the mycelium growth (Fusarium graminearum; V8 medium, control 8.6 cm) was 5.7 cm and the “EFFICACY W (Abbot)” value (Fusarium graminearum; control W=0, no growth W=100) was 34. The “% mycelium growth relative to the control” value (Monilinia fructigena) was 30%, the mycelium growth (Monilinia fructigena) was 1.6 cm and the “EFFICACY W (Abbot)” value (Monilinia fructigena) was 70. The “% mycelium growth relative to the control” value (Septoria nodorum (1291); V8 medium) was 61%, the mycelium growth (Septoria nodorum (1291); V8 medium, control 5.4 cm) was 3.3 cm and the “EFFICACY W (Abbot)” value (Septoria nodorum (1291); control W=0, no growth W=100) was 39. For the same compound, the “% mycelium growth relative to the control” value [1] was 55%, the mycelium growth [1] was 4.7 cm and the “EFFICACY W (Abbot)” value [1] was 45. For the same compound, the “% mycelium growth relative to the control” value (Verticillium longisporum; V8 medium) was 95%, the mycelium growth (Verticillium longisporum; V8 medium, control 3.9 cm) was 3.7 cm and the “EFFICACY W (Abbot)” value (Verticillium longisporum; control W=0, no growth W=100) was 5. The “% mycelium growth relative to the control” value (Rhizoctonia solani) was 100%, the mycelium growth (Rhizoctonia solani) was 8.6 cm and the “EFFICACY W (Abbot)” value (Rhizoctonia solani) was 0. The “% mycelium growth relative to the control” value (Septoria tritici; V8 medium) was 0%, the mycelium growth (Septoria tritici; V8 medium, control 1.9 cm) was 0 cm and the “EFFICACY W (Abbot)” value (Septoria tritici; control W=0, no growth W=100) was 100. The “% mycelium growth relative to the control” value (Venturia inaegualis; V8 medium) was 0%, the mycelium growth (Venturia inaegualis; V8 medium, control 2.9 cm) was 0 cm and the “EFFICACY W (Abbot)” value (Venturia inaegualis; control W=0, no growth W=100) was 100. For the same compound, the “% mycelium growth relative to the control” value (Sclerotinia sclerotiorum) was 100%, the mycelium growth (Sclerotinia sclerotiorum) was 8.6 cm and the “EFFICACY W (Abbot)” value (Sclerotinia sclerotiorum) was 0. For the same compound, the “% mycelium growth relative to the control” value (Fusarium equiseti) was 79%, the mycelium growth (Fusarium equiseti) was 6.8 cm and the “EFFICACY W (Abbot)” value (Fusarium equiseti) was 21.

For `COc1cc(C)c(C(=O)c2c(OC)ccc(Br)c2C)c(OC)c1OC` [Metrafenone (150)], the “% mycelium growth relative to the control” value (Trichoderma harzianum; V8 medium) was 80%, the mycelium growth (Trichoderma harzianum; V8 medium, control 8.6 cm) was 6.9 cm and the “EFFICACY W (Abbot)” value (Trichoderma harzianum; control W=0, no growth W=100) was 20.

In the case of `c1ccc2[nH]c(-c3cscn3)nc2c1` [Thiabendazole, thiabendazole, reference compound], the activity at 500000 µg/mL ([2]; Colletotrichum gloeosporioides, thiabendazole 500 g/L, read-out: % mycelium growth relative to the control) is reported as 0%, the inhibition of growth at 500000 µg/mL ([2]; Colletotrichum gloeosporioides, thiabendazole 500 g/L, read-out: EFFICACY W (Abbot)) is reported as 100% and the mycelium growth ([2]; thiabendazole 500 g/L) is reported as 0 cm. For the same compound, the activity at 500000 µg/mL (Fusarium oxysporum; Fusarium oxysporum, thiabendazole 500 g/L, read-out: % mycelium growth relative to the control) was 84%, the inhibition of growth at 500000 µg/mL (Fusarium oxysporum; Fusarium oxysporum, thiabendazole 500 g/L, read-out: EFFICACY W (Abbot)) was 16% and the mycelium growth (Fusarium oxysporum; thiabendazole 500 g/L) was 7.2 cm. For the same compound, the activity at 500000 µg/mL (Phytophthora megasperma; Phytophthora megasperma, thiabendazole 500 g/L, read-out: % mycelium growth relative to the control) was 48%, the inhibition of growth at 500000 µg/mL (Phytophthora megasperma; Phytophthora megasperma, thiabendazole 500 g/L, read-out: EFFICACY W (Abbot)) was 52% and the mycelium growth (Phytophthora megasperma; thiabendazole 500 g/L) was 2.6 cm.

For `O=[N+]([O-])c1cc(C(F)(F)F)c(Cl)c([N+](=O)[O-])c1Nc1ncc(C(F)(F)F)cc1Cl` [fluazinam (200)], the “% mycelium growth relative to the control” value ([2]; Colletotrichum gloeosporioides, V8 medium) was 0%, the mycelium growth ([2]; Colletotrichum gloeosporioides, V8 medium, control 5.4 cm) was 0 cm and the “EFFICACY W (Abbot)” value ([2]; Colletotrichum gloeosporioides, control W=0, no growth W=100) was 100. The “% mycelium growth relative to the control” value (Phytophthora cactorum) was 33%, the mycelium growth (Phytophthora cactorum) was 1.8 cm and the “EFFICACY W (Abbot)” value (Phytophthora cactorum) was 67. The “% mycelium growth relative to the control” value (Monilinia fructigena) was 0%, the mycelium growth (Monilinia fructigena) was 0 cm and the “EFFICACY W (Abbot)” value (Monilinia fructigena) was 100. For the same compound, the “% mycelium growth relative to the control” value [1] was 40%, the mycelium growth [1] was 3.4 cm and the “EFFICACY W (Abbot)” value [1] was 60. For the same compound, the “% mycelium growth relative to the control” value (Rhizoctonia solani) was 100%, the mycelium growth (Rhizoctonia solani) was 8.6 cm and the “EFFICACY W (Abbot)” value (Rhizoctonia solani) was 0. The “% mycelium growth relative to the control” value (Sclerotinia sclerotiorum) was 100%, the mycelium growth (Sclerotinia sclerotiorum) was 8.6 cm and the “EFFICACY W (Abbot)” value (Sclerotinia sclerotiorum) was 0. The “% mycelium growth relative to the control” value (Fusarium equiseti) was 80%, the mycelium growth (Fusarium equiseti) was 6.9 cm and the “EFFICACY W (Abbot)” value (Fusarium equiseti) was 20. The “% mycelium growth relative to the control” value (Botrytis cinerea; V8 medium) was 100%, the mycelium growth (Botrytis cinerea; V8 medium, control 8.6 cm) was 8.6 cm and the “EFFICACY W (Abbot)” value (Botrytis cinerea; control W=0, no growth W=100) was 0.
